The values that follow come from US12642790B2, “Drug combination for treating obesity” (The Curators of the University of Missouri, priority 2022, dated 2026).

The test system of one data set is ERβ. The data set can be described thus: Western blot of ERβ protein in inguinal subcutaneous adipose tissue of diet-induced obese WT and ERβDBDKO mice. The note with it: daily injections of CL for two weeks; ERβDBDKO vs WT diet-induced obese mice; GxT p<0.001; FIG. 1B. It is filed as in vivo. An excerpt: (§1) Inguinal subcutaneous adipose tissue was harvested from diet-induced obese male and female wild-type (WT) and estrogen receptor beta (ERβ) DNA-binding domain (DBD) knock-out (ERβDBDKO) mice that were given daily injections of CL316,243 (CL), a beta3 adrenergic receptor (B3AR) ligand, for two weeks. ERβDBDKO mice express a mutated form of ERβ that lacks genomic activity by genetic ablation of the DBD, however still retain non-classical (i.e., non-genomic) signaling through ERβ. Protein was then isolated from the adipose tissue using Thermo Scientific™ RIPA lysis and extraction buffer, quantified using BCA method, then 10 ug was separated on a 4-20% SDS-PAGE gel followed by transfer to polyvinylidene difluoride membranes using BioRad Trans-Turbo Blot system. […] Images were captured on a ChemiDoc Imaging System (BioRad, Hercules, CA), band intensity was quantified using ImageLab software (BioRad), then ERβ and UCP1 protein expression was quantified relative to beta actin.
(§2) FIG. 1A is a Western blot showing the levels of ERβ and UPC1 in WT and ERβDBDKO (“KO”) mice, in the presence and absence of CL316243 (“CL”). The blot in FIG. 1A was scanned to quantify the band intensity, and the data used to graph the relative protein fold change for ERβ (FIG. 1B) and UCP-1 (FIG. 1C).

Data set [1] has as its system UCP1. The data set can be described thus: Western blot of UCP1 protein in inguinal subcutaneous adipose tissue of diet-induced obese WT and ERβDBDKO mice. It is filed as in vivo. The following applies: daily injections of CL for two weeks; ERβDBDKO vs WT diet-induced obese mice; GxT p=0.017; FIG. 1C.
From the text: as §1, §2

Data set [2] deals with UCP1. The data set can be described thus: ucp1 mRNA induction in primary adipocytes by qRT-PCR. The following applies: primary adipocytes from male C57BL6J mice; 1 uM CL with 1 uM PHTPP or 10 nM DPN; 24 hours; compared to CL alone; FIG. 4. It is filed as cell-based. As to the method:
To test the hypothesis in vitro, that inhibition of genomic activity of ERβ would enhance the effectiveness of the […], CL316,243 (CL) to induce expression of the mitochondrial UCP1, primary adipocytes were treated with the following: (a) CL, (b) diarylpropionitrile (DPN) (i.e., ligand known to promote classical genomic functions of ERβ), (c) 4-(2-phenyl-5,7-bis(trifluoromethyl)pyrazolo[1,5-a]pyrimidin-3-yl)phenol (PHTPP) (i.e., ligand known to suppress classical genomic functions of ERβ), (d) CL+DPN, and (e) CL+PHTPP. Briefly, perigonadal and subcutaneous WAT was harvested from male C57BL6J mice, digested in collagenase to isolate stromal vascular cells then cultured in Dulbecco's modified eagle medium/nutrient mixture F12 media supplemented with 10% fetal bovine serum, 1% GlutaMax, 0.1% gentamicin and 0.05% insulin at 37° C. and 5% CO2. Adipocyte differentiation was induced by supplementing media with 0.5 mM 3-isobutyl-1-methylxanithin, 1 uM dexamethasone, and […] for 48 hours. 14 days post induction, primary adipocytes were treated with either 1 uM CL, 10 nM DPN, 1 uM PHTPP or a combination of ligands as outlined above. After 24 hours treatment, ucp1 mRNA induction was measured using qRT-PCR. […] Ucp1 mRNA expression is expressed as 2^ΔCT where ΔCT=housekeeping CT−Ucp1 CT and presented as fold difference relative to control (CTRL). […]
A general note: Quantitative PCR measures a nucleic acid by following its amplification.

The test system of the next data set is white adipose tissue. The following applies: obese human individuals; cited from earlier work.
The conditions of data set [3]: administration of mirabegron; cited from earlier work.

As for `C[C@H](Cc1ccc2c(c1)OC(C(=O)[O-])(C(=O)[O-])O2)NC[C@H](O)c1cccc(Cl)c1.[Na+].[Na+]` [CL], the “ERβ protein content in WAT (relative to beta actin)” value in the data set with ERβ is reported as “increases ERβ protein content in WAT to a greater level in ERβDBDKO mice compared to WT”. The “UCP1 protein content (relative to beta actin)” value in the data set on UCP1 [1] is reported as “increases UCP1 protein content in ERβDBDKO mice more so than in WT mice”.

Turning to `Oc1ccc(-c2c(-c3ccccc3)nn3c(C(F)(F)F)cc(C(F)(F)F)nc23)cc1` [PHTPP, 4-(2-phenyl-5,7-bis(trifluoromethyl)pyrazolo[1,5-a]pyrimidin-3-yl)phenol], the “Ucp1 mRNA expression, fold difference relative to control” value in the data set with UCP1 [2] is recorded as “increases the CL-mediated induction of UCP1”.

Regarding `Nc1nc(CC(=O)Nc2ccc(CCNC[C@H](O)c3ccccc3)cc2)cs1` [mirabegron], the “white adipose tissue dysfunction” value in the data set on white adipose tissue is “reduced white adipose tissue dysfunction”. In addition, in data set [3], the side effects result was “may result in hypertension, nasopharyngitis, tachycardia, headaches, urinary tract infections, upper respiratory tract infections, constipation, abdominal pain, and fatigue”.
